Paper PMC4579641 (BMC Complementary and Alternative Medicine, 2015)
≈ marks a conversion by molar mass, not a printed value. Read-outs that look alike come from different tables or passages of the source.

Key:
Mycobacterium bovis AN5 = test: microbe, parasite or virus in culture; assay type: cell-based; conditions: for MIC: Mycobacterium tuberculosis variant bovis, AN5, 168 h, read-out: Antimycobacterial activity, M. bovis MIC; for Antimycobacterial activity, M. bovis MIC: AN5 strain, Alamar Blue, 7 days incubation, average and standard deviation of triplicate assays
[1] = tested on: Mycobacterium tuberculosis H37Rv; test: Minimum Inhibitory Concentration by the Alamar Blue technique, M. tuberculosis; assay type: cell-based; conditions: for MIC: Mycobacterium tuberculosis, 168 h, read-out: Antimycobacterial activity, M. tuberculosis MIC
[2] = Cytotoxic activity on macrophages, alamar blue; assay type: cell-based, mouse; conditions: mouse, J774A monocyte macrophage cell line; J774 macrophages, 24 h; average and standard deviation of three assays
Description: (§1) The J774A mouse monocyte macrophage cell line was grown in RPMI medium (Sigma, R0883) supplemented with 10 % heat inactivated fetal bovine serum (FBS, Sigma-Aldrich), 1 % MEM-NEAA medium (Gibco, 11140–050) and a mixture of penicillin-streptomycin to 1 %. The cell culture was maintained at 37 °C with a partial atmosphere of 5 % CO2, the evaluations were carried out when 80–90 % confluence was reached.
(§2) In a 96 well plate 50,000 cells per well were deposited in a final volume of 100 μL, and incubated for 24 h at 37 °C in partial CO2 atmosphere to promote cell adhesion for an approximate 80 % confluence. Chemical compounds to be analyzed were diluted in DMSO; cytotoxic activity was evaluated by adding twofold serial dilutions of the compound to be analyzed, starting at a 1600 μg/mL concentration; the plates were further incubated (24 h). For cytotoxic evaluation, alamar blue (Sigma, R7017) solution was added (10 % v/v) and after 3 h, results were evaluated by determination of the change in color using a fluorimeter (590 nm). For negative control, cells were incubated with 500 μg/mL concentration of DMSO (Sigma, 472301), which was the highest concentration. Cytotoxic concentration (CC50) was determined using probit non-linear regression.

[3] = tested on: J774A mouse monocyte macrophage cell line; test: Cytotoxic activity on macrophages, alamar blue; assay type: cell-based; conditions: J774A CC50 versus mycobacterial MIC
Description: as §1, §2

M. tuberculosis = tested on: M. tuberculosis; set-up: method as in PMID 17924309; conditions: cited from earlier work
[4] = H37Rv strain, Alamar Blue, 7 days incubation, average and standard deviation of triplicate assays

SMILES | MIC (Mycobacterium bovis AN5) [µg/mL] | MIC [1, 4] [µg/mL] | further results
C=C1CCC2CC1C2(C)C (stereo not drawn) [β-pinene] | 41.7 ± 14.4 (≈ 306 µM) | 10.4 ± 3.61 (≈ 76.4 µM) | 
C/C=C/c1ccc(OC)cc1 [t-Anethole] | 58.3 ± 14.4 (≈ 394 µM) | 20.8 ± 7.22 (≈ 141 µM) | 
CC12CCC(CC1)C(C)(C)O2 [Eucalyptol] | 41.7 ± 14.4 (≈ 270 µM) | 41.7 ± 14.4 (≈ 270 µM) | 
CC(C)=CCC/C(C)=C/CO [Geraniol] | 12.5 (≈ 81 µM) | 12.5 (≈ 81 µM) | Antimycobacterial activity, M. tuberculosis MIC [1, 4]: 12.50 ± 0.00^EFG μg/mL
C=C1CCC2(C(C)C)CC12 (centres unmarked) [Sabinene] | 25 (≈ 184 µM) | 33.3 ± 14.4 (≈ 245 µM) | 
C=CC(=C)CCC=C(C)C [Myrcene] | 33.3 ± 14.4 (≈ 245 µM) | 25 (≈ 184 µM) | Antimycobacterial activity, M. tuberculosis MIC [1, 4]: 25.00 ± 0.00^CDEF μg/mL
CC1=CC=C(C(C)C)CC1 [α-Terpinene] | 20.8 ± 7.22 (≈ 153 µM) | 10.4 ± 3.61 (≈ 76.4 µM) | 
NNC(=O)c1ccncc1 [Isoniazid, reference compound] | 0.16 ± 0.3 (≈ 1.17 µM) |  | MIC ([1]; H37RV): 0.26 ± 0.01 µg/mL (≈ 1.9 µM)
CC1CCC(C(C)C)C(O)C1 (centres unmarked) [Menthol] | 83.3 ± 14.4 (≈ 533 µM) | 41.7 ± 14.4 (≈ 267 µM) | CC50 at 24 h [2]: 1450 ± 180 µg/mL (≈ 9280 µM); CC90 at 24 h [2]: 2600 ± 304 µg/mL (≈ 16600 µM)
CC1=CCC2C(C1)C2(C)C (centres unmarked) [3-Carene] | 33.3 ± 14.4 (≈ 245 µM) | 16.7 ± 7.22 (≈ 122 µM) | 
CC(C)=CCCC(C)CCO (stereo not drawn) [β-Citronellol] | 10.4 ± 3.61 (≈ 66.6 µM) | 6.25 (≈ 40 µM) | Antimycobacterial activity, M. tuberculosis MIC [1, 4]: 6.25 ± 0.00^FG μg/mL
Cc1ccc(C(C)C)c(O)c1 [Thymol] | 2.02 (≈ 13.4 µM) | 0.78 (≈ 5.19 µM) | Antimycobacterial activity, M. bovis MIC (Mycobacterium bovis AN5): 2.02 ± 0.88^E μg/mL; Antimycobacterial activity, M. tuberculosis MIC [1, 4]: 0.78 ± 0.01^G μg/mL; CC50 at 24 h [2]: 483 ± 28.9 µg/mL (≈ 3220 µM); CC90 at 24 h [2]: 1130 ± 115 µg/mL (≈ 7540 µM); CC50 concentration higher than the concentration needed for mycobacterial elimination [3]: approximately 500 fold
CC(C)=CCC/C(C)=C/CC/C(C)=C/CC/C(C)=C/CO [Geranylgeraniol] |  |  | MIC against M. tuberculosis (M. tuberculosis): 1.56 µg/mL (≈ 5.37 µM)
C=CCc1ccc(O)c(OC)c1 [Eugenol] | 20.8 ± 7.22 (≈ 127 µM) | 25 (≈ 152 µM) | 
Cc1ccc(C(C)C)cc1O [Carvacrol] | 5.2 (≈ 34.6 µM) | 2.02 (≈ 13.4 µM) | Antimycobacterial activity, M. bovis MIC (Mycobacterium bovis AN5): 5.20 ± 1.81^DE μg/mL; Antimycobacterial activity, M. tuberculosis MIC [1, 4]: 2.02 ± 0.88^FG μg/mL; CC50 at 24 h [2]: 900 ± 86.6 µg/mL (≈ 5990 µM); CC90 at 24 h [2]: 1950 ± 107 µg/mL (≈ 13000 µM); CC50 concentration higher than the concentration needed for mycobacterial elimination [3]: approximately 500 fold
C=C(C)[C@H]1CC=C(C)CC1 [(+) Limonene] | 41.7 ± 14.4 (≈ 306 µM) | 25 (≈ 184 µM) | 
C=CC(C)(O)CCC=C(C)C (centres unmarked) [Linalool] | 41.7 ± 14.4 (≈ 270 µM) | 33.3 ± 14.4 (≈ 216 µM) | 
O=C/C=C/c1ccccc1 [Cinnamaldehyde] | 12.5 (≈ 94.6 µM) | 3.12 (≈ 23.6 µM) | Antimycobacterial activity, M. bovis MIC (Mycobacterium bovis AN5): 12.50 ± 0.00^DE μg/mL; Antimycobacterial activity, M. tuberculosis MIC [1, 4]: 3.12 ± 0.00^EFG μg/mL
Cc1ccc(C(C)C)cc1 [p-Cymene] | 91.7 ± 14.4 (≈ 683 µM) | 91.7 ± 14.4 (≈ 683 µM) | CC50 at 24 h [2]: 1170 ± 44.3 µg/mL (≈ 8690 µM); CC90 at 24 h [2]: 2200 ± 86.6 µg/mL (≈ 16400 µM)
O=C(O)/C=C/c1ccccc1 [Cinnamic Acid] | 7.29 (≈ 49.2 µM) | 8.16 (≈ 55.1 µM) | Antimycobacterial activity, M. bovis MIC (Mycobacterium bovis AN5): 7.29 ± 4.73^DE μg/mL; Antimycobacterial activity, M. tuberculosis MIC [1, 4]: 8.16 ± 3.32^FG μg/mL
CC(C)c1ccc(C=O)cc1 [Cuminaldehyde] | 20.8 ± 7.22 (≈ 141 µM) | 10.4 ± 3.61 (≈ 70.2 µM) | 
C=C(C)[C@@H]1CC=C(C)C(=O)C1 [(+) Carvone] | 41.3 ± 15 (≈ 275 µM) | 20.8 ± 7.22 (≈ 139 µM) | 
COc1ccc(C=O)cc1 [p-Anisaldehyde] | 10.4 ± 3.61 (≈ 76.5 µM) | 4.16 ± 1.81 (≈ 30.6 µM) | 
C=CCc1ccc(OC)cc1 [Estragole] | 25 (≈ 169 µM) | 20.8 ± 7.22 (≈ 141 µM) | 
CO[C@H]1/C=C/O[C@@]2(C)Oc3c(C)c(O)c4c(O)c(c(/C=N/N5CCN(C)CC5)c(O)c4c3C2=O)NC(=O)/C(C)=C\C=C\[C@H](C)[C@H](O)[C@@H](C)[C@@H](O)[C@@H](C)[C@H](OC(C)=O)[C@@H]1C [Rifampicin, reference compound] | 0.5 ± 0.01 (≈ 0.608 µM) | 0.6 ± 0.14 (≈ 0.729 µM) | 
C=C1CC/C=C(\C)CC[C@@H]2[C@@H]1CC2(C)C [β-Caryophyllene] | 100 (≈ 489 µM) | 100 (≈ 489 µM) | 
CC(=O)OC/C=C(\C)CC/C=C(\C)CC/C=C(\C)CCC=C(C)C [geranylgeranyl acetate] |  |  | MIC against M. tuberculosis (M. tuberculosis): 3.13 µg/mL
CC1=CCC(=C(C)C)CC1 [Terpinolene] | 33.3 ± 14.4 (≈ 245 µM) | 8.33 ± 3.61 (≈ 61.1 µM) | 
CC12CCC(CC1=O)C2(C)C (centres unmarked) [Camphor] | 50 (≈ 328 µM) | 41.7 ± 14.4 (≈ 274 µM) | 
